This passage reports IC50 results from patent US10273222B2 (CELGENE QUANTICEL RESEARCH, INC., priority 2013, dated 2019).

In general, IC50 refers to the concentration that gives 50% inhibition. A lower IC50 goes with greater potency in that assay.

Common to all, as to format: biochemical
The target in assay [1] is Jarid1A (Homo sapiens (Human), UniProt P29375). Nature of the assay: Jarid1A in vitro enzyme inhibition assay (TR-FRET). The text has this:
The enzymatic assay of Jarid1A activity is based upon Time Resolved-Fluorescence Resonance Energy Transfer (TR-FRET) detection.

The target of assay [2] is Jarid1B (Homo sapiens (Human), UniProt Q9UGL1). Nature of the assay: Jarid1B in vitro enzyme inhibition assay (TR-FRET). Background: TR-FRET usually uses a lanthanide donor and a delayed reading to cut background.
Jarid1B, sequence (Q9UGL1 2-751): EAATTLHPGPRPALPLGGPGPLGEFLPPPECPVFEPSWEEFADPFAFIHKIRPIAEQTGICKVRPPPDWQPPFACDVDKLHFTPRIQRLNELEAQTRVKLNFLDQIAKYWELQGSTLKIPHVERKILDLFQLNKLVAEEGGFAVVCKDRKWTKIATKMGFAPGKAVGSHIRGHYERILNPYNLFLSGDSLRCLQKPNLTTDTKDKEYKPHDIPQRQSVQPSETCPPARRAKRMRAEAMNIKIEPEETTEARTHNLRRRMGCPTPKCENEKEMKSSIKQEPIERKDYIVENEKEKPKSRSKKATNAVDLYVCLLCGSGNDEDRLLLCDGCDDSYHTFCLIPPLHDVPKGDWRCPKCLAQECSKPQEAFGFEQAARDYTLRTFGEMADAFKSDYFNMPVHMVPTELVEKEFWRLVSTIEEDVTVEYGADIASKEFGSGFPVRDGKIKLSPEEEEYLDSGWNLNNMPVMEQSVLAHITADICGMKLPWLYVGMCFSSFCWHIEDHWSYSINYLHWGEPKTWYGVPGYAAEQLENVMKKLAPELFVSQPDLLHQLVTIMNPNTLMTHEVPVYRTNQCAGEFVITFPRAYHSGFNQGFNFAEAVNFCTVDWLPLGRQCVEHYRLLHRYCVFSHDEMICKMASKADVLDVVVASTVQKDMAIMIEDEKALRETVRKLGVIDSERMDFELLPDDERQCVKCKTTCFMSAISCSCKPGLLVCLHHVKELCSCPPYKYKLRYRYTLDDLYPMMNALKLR
Assay [3] has as its target JMJD2C (Homo sapiens (Human), UniProt Q9H3R0). Nature of the assay: JMJD2C in vitro enzyme inhibition assay (TR-FRET).
Method: This assay determines the ability of a test compound to inhibit Jarid1A, Jarid1B, JMJD2C, and JMJD2A demethylase activity. […] Baculovirus expressed JMJD2C (GenBank Accession #BC143571, AA 2-372) was purchased from BPS Bioscience (Cat#50105).
The ability of test compounds to inhibit the activity of JMJD2C was determined in 384-well plate format under the following reaction conditions: 0.3 nM JMJD2C, 300 nM H3K9me3-biotin labeled peptide (Anaspec cat #64360), 2 μM alpha-ketoglutaric acid in assay buffer of 50 mM HEPES, pH7.3, 0.005% Brij35, 0.5 mM TCEP, 0.2 mg/ml BSA, 50 μM sodium L-ascorbate, and 2 μM ammonium iron(II) sulfate. Reaction product was determined quantitatively by TR-FRET after the addition of detection reagent Phycolink Streptavidin-allophycocyanin (Prozyme) and Europium-anti-di-methylated histone H3 lysine 9 (H3K9me2) antibody (PerkinElmer) in the presence of 5 mM EDTA in LANCE detection buffer (PerkinElmer) at a final concentration of 50 nM and 1 nM, respectively.
The assay reaction was initiated by the following: 2 μl of the mixture of 900 nM H3K9me3-biotin labeled peptide and 6 μM alpha-ketoglutaric acid with 2 μl of 11-point serial diluted inhibitor in 3% DMSO were added to each well of the plate, followed by the addition of 2 μl of 0.9 nM JMJD2C to initiate the reaction. The reaction mixture was incubated at room temperature for 30 minutes, and terminated by the addition of 6 μl of 5 mM EDTA in LANCE detection buffer containing 100 nM Phycolink Streptavidin-allophycocyanin and 2 nM Europium-anti-H3K9me2 antibody. Plates were read by EnVisionMultilabel Reader in TR-FRET mode (excitation at 320 nm, emission at 615 nm and 665 nm) after 1 hour incubation at room temperature. A ratio was calculated (665/615) for each well and fitted to determine inhibition constant (IC50).
Assay [4] deals with FBXL10 (Homo sapiens (Human), UniProt Q8NHM5). Nature of the assay: FBXL10 in vitro enzyme inhibition assay (AlphaScreen). As for the experimental part:
Reaction product was determined quantitatively by AlphaScreen detection after the addition of detection reagents anti-H3K36me1 antibody, AlphaScreen® Streptavidin-coated Donor beads, and AlphaScreen® Protein A Acceptor beads in 50 mM HEPES, pH7.3, 10 mM NaCl, 0.005% Brij35, 5 mM EDTA, 2 mg/ml BSA to final 10 μg/ml beads.
Plates were incubated at room temperature for 40 minutes, followed by addition of 3 μl of 50 μg/ml AlphaScreen® Streptavidin-coated Donor beads and AlphaScreen® Protein A Acceptor beads in 50 mM HEPES, pH7.3, 10 mM NaCl, 0.005% Brij35, 5 mM EDTA, 2 mg/ml BSA. Plates were read by EnVisionMultilabel Reader in AlphaScreen mode after a minimum of 2 hour or up to overnight incubation at room temperature. The AlphaScreen signal for each well was used to determine inhibition constant (IC50).

JMJD2C, sequence (Q9H3R0 2-372): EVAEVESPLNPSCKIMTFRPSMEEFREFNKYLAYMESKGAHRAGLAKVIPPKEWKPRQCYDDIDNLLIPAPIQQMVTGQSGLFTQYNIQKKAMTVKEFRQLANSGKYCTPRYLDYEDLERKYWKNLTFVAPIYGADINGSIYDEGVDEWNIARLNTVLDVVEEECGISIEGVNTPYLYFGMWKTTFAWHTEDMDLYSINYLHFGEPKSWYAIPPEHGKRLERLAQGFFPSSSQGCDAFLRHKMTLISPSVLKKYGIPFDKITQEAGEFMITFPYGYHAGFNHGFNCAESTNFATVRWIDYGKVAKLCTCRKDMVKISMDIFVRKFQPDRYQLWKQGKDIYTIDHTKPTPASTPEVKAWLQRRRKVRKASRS
FBXL10, sequence (Q8NHM5 1-650): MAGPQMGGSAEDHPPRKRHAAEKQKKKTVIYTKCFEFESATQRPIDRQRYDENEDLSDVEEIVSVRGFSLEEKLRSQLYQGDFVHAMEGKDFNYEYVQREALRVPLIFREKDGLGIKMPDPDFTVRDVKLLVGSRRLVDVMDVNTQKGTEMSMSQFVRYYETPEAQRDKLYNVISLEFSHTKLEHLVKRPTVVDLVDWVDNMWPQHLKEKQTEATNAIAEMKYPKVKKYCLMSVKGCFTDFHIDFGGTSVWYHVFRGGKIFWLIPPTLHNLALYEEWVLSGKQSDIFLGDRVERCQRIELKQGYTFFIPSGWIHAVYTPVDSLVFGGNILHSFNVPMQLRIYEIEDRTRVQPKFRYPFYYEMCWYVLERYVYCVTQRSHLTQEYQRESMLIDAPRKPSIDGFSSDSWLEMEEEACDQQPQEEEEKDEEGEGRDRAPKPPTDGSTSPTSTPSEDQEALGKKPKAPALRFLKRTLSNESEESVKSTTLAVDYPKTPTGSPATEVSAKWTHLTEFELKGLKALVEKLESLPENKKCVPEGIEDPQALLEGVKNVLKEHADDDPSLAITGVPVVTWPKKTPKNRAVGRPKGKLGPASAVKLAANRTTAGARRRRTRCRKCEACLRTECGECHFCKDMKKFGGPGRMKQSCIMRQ
Jarid1A, sequence (P29375 1-1090): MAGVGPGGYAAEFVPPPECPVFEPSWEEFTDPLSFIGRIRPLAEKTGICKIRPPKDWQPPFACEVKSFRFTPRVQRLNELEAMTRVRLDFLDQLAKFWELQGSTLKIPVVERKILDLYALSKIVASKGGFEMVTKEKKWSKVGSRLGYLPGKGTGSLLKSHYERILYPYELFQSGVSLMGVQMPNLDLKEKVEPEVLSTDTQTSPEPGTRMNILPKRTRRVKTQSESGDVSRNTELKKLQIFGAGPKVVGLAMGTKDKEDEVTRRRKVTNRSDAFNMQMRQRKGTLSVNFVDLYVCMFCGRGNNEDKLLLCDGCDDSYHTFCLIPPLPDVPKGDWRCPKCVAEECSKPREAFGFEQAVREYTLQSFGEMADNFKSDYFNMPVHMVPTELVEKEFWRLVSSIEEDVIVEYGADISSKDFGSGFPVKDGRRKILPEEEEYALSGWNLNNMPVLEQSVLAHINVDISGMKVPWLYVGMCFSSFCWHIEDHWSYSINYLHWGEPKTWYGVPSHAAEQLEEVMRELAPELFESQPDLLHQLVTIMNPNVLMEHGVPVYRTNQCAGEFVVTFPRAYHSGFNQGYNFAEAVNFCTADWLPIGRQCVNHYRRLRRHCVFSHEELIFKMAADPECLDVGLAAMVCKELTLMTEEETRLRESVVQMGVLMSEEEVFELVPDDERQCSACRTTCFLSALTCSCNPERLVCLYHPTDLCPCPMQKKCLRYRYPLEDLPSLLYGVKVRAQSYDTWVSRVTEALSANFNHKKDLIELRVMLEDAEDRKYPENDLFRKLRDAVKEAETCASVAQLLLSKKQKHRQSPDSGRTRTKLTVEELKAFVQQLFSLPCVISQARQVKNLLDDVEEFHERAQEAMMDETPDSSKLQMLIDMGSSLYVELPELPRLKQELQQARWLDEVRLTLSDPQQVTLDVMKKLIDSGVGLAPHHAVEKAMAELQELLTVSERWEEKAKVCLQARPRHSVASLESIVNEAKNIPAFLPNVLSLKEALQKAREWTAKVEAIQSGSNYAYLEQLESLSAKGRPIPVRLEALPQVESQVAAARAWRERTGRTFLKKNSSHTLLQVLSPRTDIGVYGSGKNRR

With `O=C(O)c1ccnc(-c2cn(CCN(Cc3ccc(Cl)cc3)C3CC3)cn2)c1` [Example 85, 2-[1-[2-[(4-chlorophenyl)methyl-cyclopropylamino]ethyl]imidazol-4-yl]pyridine-4-carboxylic acid], the IC50 in assay [1] was not above 100 nM; in assay [2], not above 100 nM; in assay [3], 100 to 1000 nM; in assay [4], not above 100 nM.

As to `CN1CCCC(Cn2cnc(-c3cc(C(=O)O)ccn3)c2)C1` (stereo not shown) [Example 55, 2-{1-[(1-methylpiperidin-3-yl)methyl]-1H-imidazol-4-yl}pyridine-4-carboxylic acid], the half-maximal inhibitory concentration (IC50) in assay [1], in assay [2], in assay [3] and in assay [4] was not above 100 nM in each case.

As for `O=C(O)c1ccnc(-c2cn(CCN3Cc4ccc(F)cc4C3)cn2)c1` [Example 79, 2-[1-[2-(5-fluoro-1,3-dihydroisoindol-2-yl)ethyl]imidazol-4-yl]pyridine-4-carboxylic acid], the IC50 in assay [1], in assay [2], in assay [3] and in assay [4] was not above 100 nM in each case.

On to `O=C(O)c1ccnc(-c2cn(Cc3ccccn3)cn2)c1` [Example 47, 2-[1-(pyridin-2-ylmethyl)-1H-imidazol-4-yl]pyridine-4-carboxylic acid], for which the IC50 in assay [1] is not above 100 nM; in assay [2], not above 100 nM; in assay [3], 100 to 1000 nM; in assay [4], not above 100 nM.

With `O=C(O)c1ccnc(-c2cn(CCNCC3CC(F)(F)C3)cn2)c1` [Example 73, 2-[1-[2-[(3,3-difluorocyclobutyl)methylamino]ethyl]imidazol-4-yl]pyridine-4-carboxylic acid], the IC50 in assay [1], in assay [2], in assay [3] and in assay [4] was not above 100 nM throughout.

On to `O=C(O)c1ccnc(-c2cn(CCN3Cc4ccc(C(F)(F)F)cc4C3)cn2)c1` [Example 84, 2-[1-[2-[5-(trifluoromethyl)-1,3-dihydroisoindol-2-yl]ethyl]imidazol-4-yl]pyridine-4-carboxylic acid], for which the IC50 in assay [1], in assay [2], in assay [3] and in assay [4] was not above 100 nM in each case.

In the case of `O=C(O)c1ccnc(-c2cn(CC3CCCN3)cn2)c1` (stereo not shown) [Example 53, 2-[1-(pyrrolidin-2-ylmethyl)-1H-imidazol-4-yl]pyridine-4-carboxylic acid], the 50% inhibitory concentration (IC50) in assay [1] was not above 100 nM; in assay [2], not above 100 nM; in assay [3] it was not above 100 nM; in assay [4] it was 100 to 1000 nM.

As to `O=C(O)c1ccnc(-c2cn(CCN3Cc4cccc(Cl)c4C3)cn2)c1` [Example 81, 2-[1-[2-(4-chloro-1,3-dihydroisoindol-2-yl)ethyl]imidazol-4-yl]pyridine-4-carboxylic acid], the IC50 in assay [1], in assay [2], in assay [3] and in assay [4] was not above 100 nM in each case.

Consider `O=C(O)c1ccnc(-c2cn(CCN3Cc4ccccc4C3)cn2)c1` [Example 76, 2-[1-[2-(1,3-dihydroisoindol-2-yl)ethyl]imidazol-4-yl]pyridine-4-carboxylic acid], for which the IC50 in assay [1], in assay [2], in assay [3] and in assay [4] was not above 100 nM each time.

Turning to `O=C(O)c1ccnc(-c2cn(CCn3cccn3)cn2)c1` [Example 46, 2-{1-[2-(1H-pyrazol-1-yl)ethyl]-1H-imidazol-4-yl}pyridine-4-carboxylic acid], the IC50 in assay [1] was 100 to 1000 nM; in assay [2] it was 100 to 1000 nM; in assay [3], 1000 to 10000 nM; in assay [4], 100 to 1000 nM.

With `CCOc1cc(Cl)ccc1-c1c(-c2cc(C(=O)O)ccn2)ncn1C` [Example 32, 2-[5-(4-chloro-2-ethoxyphenyl)-1-methyl-1H-imidazol-4-yl]pyridine-4-carboxylic acid], the IC50 was not above 100 nM in assay [1], not above 100 nM in assay [2], 1000 to 10000 nM in assay [3] and 100 to 1000 nM in assay [4].

On to `O=C(O)c1ccnc(-c2cn(CC3CCCCC3)cn2)c1` [Example 115, 2-[1-(cyclohexylmethyl)imidazol-4-yl]pyridine-4-carboxylic acid], for which the IC50 is not above 100 nM in assay [1], not above 100 nM in assay [2], 100 to 1000 nM in assay [3] and not above 100 nM in assay [4].

In the case of `COCCn1cnc(-c2cc(C(=O)O)ccn2)c1-c1ccc(Cl)c(F)c1` [Example 37, 2-[5-(4-chloro-3-fluorophenyl)-1-(2-methoxyethyl)-1H-imidazol-4-yl]pyridine-4-carboxylic acid], the IC50 is not above 100 nM in assay [1], not above 100 nM in assay [2], 1000 to 10000 nM in assay [3] and not above 100 nM in assay [4].

On to `COCC1(c2ccc(-c3c(-c4cc(C(=O)O)ccn4)ncn3C)cc2)CC1` [Example 25, 2-(5-{4-[1-(methoxymethyl)cyclopropyl]phenyl}-1-methyl-1H-imidazol-4-yl)pyridine-4-carboxylic acid], for which the IC50 is not above 100 nM in assay [1], not above 100 nM in assay [2] and 1000 to 10000 nM in assay [3].

For `Cn1cnc(-c2cc(C(=O)O)ccn2)c1-c1ccc(C2(C(F)(F)F)CC2)cc1` [Example 34, 2-(1-methyl-5-{4-[1-(trifluoromethyl)cyclopropyl]phenyl}-1H-imidazol-4-yl)pyridine-4-carboxylic acid], the IC50 is not above 100 nM in assay [1], not above 100 nM in assay [2] and 100 to 1000 nM in assay [3].

For the molecule `Cn1cnc(-c2cc(C(=O)O)ccn2)c1-c1ccc(C2(CO)CC2)cc1` [Example 17, 2-(5-{4-[1-(hydroxymethyl)cyclopropyl]phenyl}-1-methyl-1H-imidazol-4-yl)pyridine-4-carboxylic acid], the IC50 is not above 100 nM in assay [1], not above 100 nM in assay [2] and 100 to 1000 nM in assay [3].

For `O=C(O)c1ccnc(-c2cn(CCNCc3ccccc3C(F)(F)F)cn2)c1` [Example 75, 2-[1-[2-[[2-(trifluoromethyl)phenyl]methylamino]ethyl]imidazol-4-yl]pyridine-4-carboxylic acid], the IC50 in assay [1], in assay [2] and in assay [3] was not above 100 nM in each case.

Take `CC(Cn1cnc(-c2cc(C(=O)O)ccn2)c1)N1CCCC1` (stereo not shown) [Example 61, 2-{1-[2-(pyrrolidin-1-yl)propyl]-1H-imidazol-4-yl}pyridine-4-carboxylic acid]: the half-inhibitory concentration (IC50) in assay [1], in assay [2] and in assay [3] was not above 100 nM throughout.

Regarding `Cc1cc(Cl)ccc1-c1c(-c2cc(C(=O)O)ccn2)ncn1C` [Example 26, 2-[5-(4-chloro-2-methylphenyl)-1-methyl-1H-imidazol-4-yl]pyridine-4-carboxylic acid], the values for the IC50 in assay [1], in assay [2] and in assay [3] were not above 100 nM, 100 to 1000 nM and 1000 to 10000 nM, respectively.

Regarding `Cn1cnc(-c2cc(C(=O)O)ccn2)c1-c1ccc(C(C)(C)C)cc1` [Example 9, 2-[5-(4-tert-butylphenyl)-1-methyl-1H-imidazol-4-yl]pyridine-4-carboxylic acid], the figures for the IC50 in assay [1], in assay [2] and in assay [3] were 100 to 1000 nM, 100 to 1000 nM and 1000 to 10000 nM, respectively.

For the molecule `CNC(=O)c1cccc(-c2c(-c3cc(C(=O)O)ccn3)ncn2C)c1` [Example 10, 2-{1-methyl-5-[3-(methylcarbamoyl)phenyl]-1H-imidazol-4-yl}pyridine-4-carboxylic acid], the results for the IC50 in assay [1], in assay [2] and in assay [3] were 100 to 1000 nM, 100 to 1000 nM and 1000 to 10000 nM, respectively.
